In US12667735B2, “Methods for reducing pain during photodynamic therapy of actinic keratosis” (Sun Pharmaceutical Industries, Inc., priority 2019, dated 2026):
Where “and” joins values, the source holds several entries; their conditions need not be identical. Equal values may be shown once. Entries after “also recorded” stand apart in the source; their conditions may differ.

How the values were obtained:
[1] = Pain during blue light illumination (0 to 10 VAS); type: in vivo, human; settings: for Pain score (0-to-10 VAS) during illumination / Pain score (0-to-10 VAS) during illumination, Mean: individual patients; for Pain score (0-to-10 VAS) during illumination, Mean: mean over time points; for Mean VAS pain score during illumination: all 23 patients, linear mixed-effect model, 0-10 scale
Procedure: The term “Visual Analogue Scale for Pain (referred to as VAS pain score hereafter) as used herein, is defined as follows: An 11-point numerical pain scale wherein patients report a number (from 0 to 10) that most closely reflects the level of pain they are experiencing at that particular moment; 0 corresponds to no pain and 10 corresponds to the worst pain imaginable (Breivik, HaraldScandinavian Journal of Pain 2016; 11:150-152).
(§1) Several secondary endpoints were also measured. For pain assessment, patients were asked every 5 to 10 min during illumination to report their pain on a 0 to 10 visual-analog (VAS) scale. Erythema was recorded photographically at Day 1 and on Day 4 post PDT. A side effect profile was recorded by each patient in a daily home questionnaire to document the presence or absence of eleven different signs and symptoms in the 4 days immediately following PDT (see Table 2).
The primary endpoint was AK lesion reduction. […] Statistical significance was considered with a p-value <0.05.

[2] = system: actinic keratoses (AK) lesions of face and scalp; assay: AK lesion clearance, bilaterally controlled randomized clinical trial of ALA blue light PDT
[3] = Daily home questionnaire of side effects, first 4 days after PDT; type: in vivo, human; settings: Side A (test PDT)
Procedure: as §1

NCC(=O)CCC(=O)O [ALA, 5-aminolevulinic acid]
Pain score (0-to-10 VAS) during illumination ([1]; SIDE A (test PDT), 10 min during illumination, 30 min test PDT cohort): 0 (3×) and 2 and 3 and 1
Pain score (0-to-10 VAS) during illumination ([1]; SIDE A (test PDT), 10 min during illumination, 45 min test PDT cohort): 0 (5×) and 1 (3×)
Pain score (0-to-10 VAS) during illumination ([1]; SIDE A (test PDT), 10 min during illumination, 60 min test PDT cohort): 0
Pain score (0-to-10 VAS) during illumination ([1]; SIDE A (test PDT), 20 min during illumination, 30 min test PDT cohort): 0 (2×) and 2 and 5 and 1 (2×)
Pain score (0-to-10 VAS) during illumination ([1]; SIDE A (test PDT), 20 min during illumination, 45 min test PDT cohort): 0 (6×) and 1 (2×)
Pain score (0-to-10 VAS) during illumination ([1]; SIDE A (test PDT), 20 min during illumination, 60 min test PDT cohort): 0
Pain score (0-to-10 VAS) during illumination ([1]; SIDE A (test PDT), 30 min during illumination, 30 min test PDT cohort): 0 (2×) and 2 and 6 and 1 (2×)
Pain score (0-to-10 VAS) during illumination ([1]; SIDE A (test PDT), 30 min during illumination, 45 min test PDT cohort): 0 (7×) and 1
Pain score (0-to-10 VAS) during illumination ([1]; SIDE A (test PDT), 30 min during illumination, 60 min test PDT cohort): 0
Pain score (0-to-10 VAS) during illumination ([1]; SIDE A (test PDT), 40 min during illumination, 45 min test PDT cohort): 0 (6×) and 1 (2×)
Pain score (0-to-10 VAS) during illumination ([1]; SIDE A (test PDT), 40 min during illumination, 60 min test PDT cohort): 0
Pain score (0-to-10 VAS) during illumination ([1]; SIDE A (test PDT), 50 min during illumination): 0
Pain score (0-to-10 VAS) during illumination, Mean ([1]; SIDE A (test PDT), 30 min test PDT cohort): 0.0 (3×) and 2.0 and 4.7 and 0.7 and 1.0
Pain score (0-to-10 VAS) during illumination, Mean ([1]; SIDE A (test PDT), 45 min test PDT cohort): 0.0 (4×) and 0.3 (2×) and 1.0 and 0.5
Pain score (0-to-10 VAS) during illumination, Mean ([1]; SIDE A (test PDT), 60 min test PDT cohort): 0.0 (5×) and 0.8 (2×) and 0.2
Pain score (0-to-10 VAS) during illumination ([1]; SIDE B (control PDT), 5 min during illumination, 30 min test PDT cohort): 2 and 10 (2×) and 4 and 5 and 3
Pain score (0-to-10 VAS) during illumination ([1]; SIDE B (control PDT), 5 min during illumination, 45 min test PDT cohort): 8 and 4 (3×) and 3 and 2 and 5 and 1
Pain score (0-to-10 VAS) during illumination ([1]; SIDE B (control PDT), 5 min during illumination, 60 min test PDT cohort): 1
Pain score (0-to-10 VAS) during illumination ([1]; SIDE B (control PDT), 10 min during illumination, 30 min test PDT cohort): 1 and 7 and 5 and 4 and 3 (2×)
Pain score (0-to-10 VAS) during illumination ([1]; SIDE B (control PDT), 10 min during illumination, 45 min test PDT cohort): 3 (3×) and 2 and 4 and 5 (2×) and 1
Pain score (0-to-10 VAS) during illumination ([1]; SIDE B (control PDT), 10 min during illumination, 60 min test PDT cohort): 1
Pain score (0-to-10 VAS) during illumination ([1]; SIDE B (control PDT), 15 min during illumination, 30 min test PDT cohort): 0 and 5 and 6 and 4 and 1 and 3
Pain score (0-to-10 VAS) during illumination ([1]; SIDE B (control PDT), 15 min during illumination, 45 min test PDT cohort): 0 and 2 (3×) and 1 and 3 and 4 and 5
Pain score (0-to-10 VAS) during illumination ([1]; SIDE B (control PDT), 15 min during illumination, 60 min test PDT cohort): 0
Pain score (0-to-10 VAS) during illumination, Mean ([1]; SIDE B (control PDT), 30 min test PDT cohort): 1.0 and 7.3 and 7.0 and 4.0 and 3.0 (2×) and 4.7
Pain score (0-to-10 VAS) during illumination, Mean ([1]; SIDE B (control PDT), 45 min test PDT cohort): 3.7 (2×) and 3.0 and 2.7 and 1.7 and 4.3 and 5.0 and 1.3
Pain score (0-to-10 VAS) during illumination, Mean ([1]; SIDE B (control PDT), 60 min test PDT cohort): 0.7 and 6.3 and 4.3 and 1.0 and 3.7 (2×) and 6.7 and 0.3
Mean VAS pain score during illumination ([1]; Side A (test PDT)): 0.52
Mean VAS pain score during illumination ([1]; Side B (control PDT)): 3.57
Pain during illumination, test PDT side versus control side ([1]; substantially no pre-illumination gap versus 1 hour gap): drastically reduced
Clinical response, Difference (A − B) ([2]; Face, 30 min cohort): −1.7%
Clinical response (% reduction in AK counts at 3 months) ([2]; Face, 30 min cohort, Side A (test PDT, 30 min blue light)): 55.4%
Clinical response (% reduction in AK counts at 3 months) ([2]; Face, 30 min cohort, Side B (control PDT)): 57.1%
Clinical response, Difference (A − B) ([2]; Face, 45 min cohort): 1.1%
Clinical response (% reduction in AK counts at 3 months) ([2]; Face, 45 min cohort, Side A (test PDT, 45 min blue light)): 59.8%
Clinical response (% reduction in AK counts at 3 months) ([2]; Face, 45 min cohort, Side B (control PDT)): 58.6%
Clinical response, Difference (A − B) ([2]; Face, 60 min cohort): −3.8%
Clinical response (% reduction in AK counts at 3 months) ([2]; Face, 60 min cohort, Side A (test PDT, 60 min blue light)): 57.5%
Clinical response (% reduction in AK counts at 3 months) ([2]; Face, 60 min cohort, Side B (control PDT)): 61.2%
Clinical response, Difference (A − B) ([2]; Face, all patients): −1.4%
Clinical response (% reduction in AK counts at 3 months) ([2]; Face, all patients, Side A (test PDT, substantially no pre-illumination gap)): 57.7%
Clinical response (% reduction in AK counts at 3 months) ([2]; Face, all patients, Side B (control PDT, 1 hr pre-illumination gap, blue light 1000 sec)): 59.1%
Clinical response, Difference (A − B) ([2]; Scalp, 30 min cohort): −1.2%
Clinical response (% reduction in AK counts at 3 months) ([2]; Scalp, 30 min cohort, Side A (test PDT, 30 min blue light)): 44.8%
Clinical response (% reduction in AK counts at 3 months) ([2]; Scalp, 30 min cohort, Side B (control PDT)): 46.0%
Clinical response, Difference (A − B) ([2]; Scalp, 45 min cohort): 3%
Clinical response (% reduction in AK counts at 3 months) ([2]; Scalp, 45 min cohort, Side A (test PDT, 45 min blue light)): 41.2%
Clinical response (% reduction in AK counts at 3 months) ([2]; Scalp, 45 min cohort, Side B (control PDT)): 38.2%
Clinical response, Difference (A − B) ([2]; Scalp, 60 min cohort): 3.7%
Clinical response (% reduction in AK counts at 3 months) ([2]; Scalp, 60 min cohort, Side A (test PDT, 60 min blue light)): 45.2%
Clinical response (% reduction in AK counts at 3 months) ([2]; Scalp, 60 min cohort, Side B (control PDT)): 41.5%
Clinical response, Difference (A − B) ([2]; Scalp, all patients): 1.9%
Clinical response (% reduction in AK counts at 3 months) ([2]; Scalp, all patients, Side A (test PDT, substantially no pre-illumination gap)): 43.8%
Clinical response (% reduction in AK counts at 3 months) ([2]; Scalp, all patients, Side B (control PDT, 1 hr pre-illumination gap, blue light 1000 sec)): 41.9%
Clinical efficacy (lesion clearance), test PDT versus control PDT ([2]; face and scalp, 3 months, test of non-inferiority): nearly identical on both sides of the face and scalp; also recorded: statistically indistinguishable
Bleeding ([3]; DAY 1): 0, 0 percentage of patients
Blisters ([3]; DAY 1): 13, 13 percentage of patients
Burning ([3]; DAY 1): 65, 65 percentage of patients
Crusting ([3]; DAY 1): 9 percentage of patients
Itching ([3]; DAY 1): 43, 43 percentage of patients
Open sores ([3]; DAY 1): 0, 0 percentage of patients
Peeling ([3]; DAY 1): 4 percentage of patients
Redness ([3]; DAY 1): 91, 91 percentage of patients
Stinging ([3]; DAY 1): 65, 65 percentage of patients
Swelling ([3]; DAY 1): 26 percentage of patients
Pain Score Mean (0-10 visual-analog scale) ([3]; DAY 1, average of 23 patients): 3.0
Bleeding ([3]; DAY 2): 17 percentage of patients
Blisters ([3]; DAY 2): 4 percentage of patients
Burning ([3]; DAY 2): 52, 52 percentage of patients
Crusting ([3]; DAY 2): 9 percentage of patients
Itching ([3]; DAY 2): 74, 74 percentage of patients
Open sores ([3]; DAY 2): 9, 9 percentage of patients
